Consider three compounds from ChEMBL document CHEMBL5715954, “Silencing c-Myc translation as a therapeutic strategy through targeting PI3Kδ and CK1ε in hematological malignancies” (Blood, 2017).

In test [1] the target is Serine/threonine-protein kinase SIK3 (Homo sapiens) (UniProt Q9Y2K2). Put plainly: Inhibition of human SIK3 assessed as enzyme activity at 1 uM using AMARAASAAALARRR as substrate preincubated for 20 mins followed by [gamma-33P]-ATP addition and measured after 120 mins by radiometric Hot-SpotSM Kinase assay relative to control. The arrangement: scale not given: the % may be the effect or the level left.
Sequence of Serine/threonine-protein kinase SIK3 (Homo sapiens) (Q9Y2K2 whole entry, looked up): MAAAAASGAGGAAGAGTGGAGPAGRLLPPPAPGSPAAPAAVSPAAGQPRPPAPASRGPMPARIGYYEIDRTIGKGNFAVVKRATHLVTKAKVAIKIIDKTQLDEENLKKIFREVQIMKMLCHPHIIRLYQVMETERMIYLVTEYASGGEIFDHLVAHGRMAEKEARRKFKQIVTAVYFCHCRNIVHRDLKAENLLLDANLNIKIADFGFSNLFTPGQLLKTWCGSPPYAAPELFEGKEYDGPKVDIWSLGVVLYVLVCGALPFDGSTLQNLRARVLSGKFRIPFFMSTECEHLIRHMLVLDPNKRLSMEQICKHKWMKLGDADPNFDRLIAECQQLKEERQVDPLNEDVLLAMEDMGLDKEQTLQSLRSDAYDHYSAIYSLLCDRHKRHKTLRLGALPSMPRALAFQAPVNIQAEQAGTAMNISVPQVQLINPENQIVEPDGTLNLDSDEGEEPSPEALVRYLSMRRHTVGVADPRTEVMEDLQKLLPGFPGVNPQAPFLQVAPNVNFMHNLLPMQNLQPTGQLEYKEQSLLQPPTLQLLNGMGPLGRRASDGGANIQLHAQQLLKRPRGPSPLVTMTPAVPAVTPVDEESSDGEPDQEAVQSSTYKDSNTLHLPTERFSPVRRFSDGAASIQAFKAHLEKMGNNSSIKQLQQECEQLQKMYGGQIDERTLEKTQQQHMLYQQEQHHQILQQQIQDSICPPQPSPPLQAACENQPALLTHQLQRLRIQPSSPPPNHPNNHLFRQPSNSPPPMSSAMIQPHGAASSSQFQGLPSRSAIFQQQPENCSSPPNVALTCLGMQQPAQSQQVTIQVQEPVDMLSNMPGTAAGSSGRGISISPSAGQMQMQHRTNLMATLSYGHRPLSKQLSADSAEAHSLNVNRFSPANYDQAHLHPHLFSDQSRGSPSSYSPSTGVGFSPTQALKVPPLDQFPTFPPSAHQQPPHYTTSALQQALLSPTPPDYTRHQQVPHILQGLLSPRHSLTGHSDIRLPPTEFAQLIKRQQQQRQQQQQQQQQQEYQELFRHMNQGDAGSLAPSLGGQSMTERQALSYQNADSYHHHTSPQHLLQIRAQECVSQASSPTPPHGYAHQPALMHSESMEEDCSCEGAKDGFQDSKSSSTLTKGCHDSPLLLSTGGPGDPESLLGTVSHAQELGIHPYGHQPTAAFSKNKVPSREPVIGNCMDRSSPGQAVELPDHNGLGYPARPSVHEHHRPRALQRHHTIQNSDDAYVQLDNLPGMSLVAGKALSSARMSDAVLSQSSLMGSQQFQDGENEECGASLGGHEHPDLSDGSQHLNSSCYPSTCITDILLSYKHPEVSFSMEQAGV

In test [2] the target is Serine/threonine-protein kinase N3 (Homo sapiens) (UniProt Q6P5Z2). Put plainly: Inhibition of human PKN3 assessed as enzyme activity at 1 uM using KKLNRTLSVA as substrate preincubated for 20 mins followed by [gamma-33P]-ATP addition and measured after 120 mins by radiometric Hot-SpotSM Kinase assay relative to control. Set-up: scale not given: the % may be the effect or the level left.
Sequence of Serine/threonine-protein kinase N3 (Homo sapiens) (Q6P5Z2 whole entry, looked up): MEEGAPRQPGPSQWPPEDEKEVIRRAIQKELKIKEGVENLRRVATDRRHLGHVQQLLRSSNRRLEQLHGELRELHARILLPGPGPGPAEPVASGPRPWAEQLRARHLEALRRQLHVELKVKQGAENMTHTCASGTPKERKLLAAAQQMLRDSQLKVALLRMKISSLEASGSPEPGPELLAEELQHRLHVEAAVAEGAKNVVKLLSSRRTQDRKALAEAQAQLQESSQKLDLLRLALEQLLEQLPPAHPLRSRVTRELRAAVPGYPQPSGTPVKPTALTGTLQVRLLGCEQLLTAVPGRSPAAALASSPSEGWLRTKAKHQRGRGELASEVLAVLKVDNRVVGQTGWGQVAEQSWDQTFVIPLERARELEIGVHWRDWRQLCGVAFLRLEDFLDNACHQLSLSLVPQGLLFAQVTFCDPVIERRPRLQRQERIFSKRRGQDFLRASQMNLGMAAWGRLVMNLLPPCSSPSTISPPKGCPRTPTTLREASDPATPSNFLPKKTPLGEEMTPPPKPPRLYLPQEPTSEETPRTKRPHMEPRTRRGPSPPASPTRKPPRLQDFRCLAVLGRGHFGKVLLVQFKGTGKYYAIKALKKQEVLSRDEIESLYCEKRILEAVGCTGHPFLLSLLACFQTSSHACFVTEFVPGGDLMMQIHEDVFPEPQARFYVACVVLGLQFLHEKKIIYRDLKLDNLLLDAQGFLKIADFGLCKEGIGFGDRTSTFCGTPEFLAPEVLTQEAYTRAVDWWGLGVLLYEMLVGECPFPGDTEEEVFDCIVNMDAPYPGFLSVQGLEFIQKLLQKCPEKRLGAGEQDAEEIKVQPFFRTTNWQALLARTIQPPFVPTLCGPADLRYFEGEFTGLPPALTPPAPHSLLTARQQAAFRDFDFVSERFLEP

For test [3], the target named is CDK4/Cyclin D3 (Homo sapiens) (UniProt P11802+P30281). Put plainly: Inhibition of human CDK4/cyclin D3 assessed as enzyme activity at 1 uM using RB-CTF as substrate preincubated for 20 mins followed by [gamma-33P]-ATP addition and measured after 120 mins by radiometric Hot-SpotSM Kinase assay relative to control. The format is protein-complex assay. Set-up: scale not given: the % may be the effect or the level left.

Test [4] concerns the target Ribosomal protein S6 kinase beta-2 (Homo sapiens) (UniProt Q9UBS0). Put plainly: Inhibition of human p70S6Kb assessed as enzyme activity at 1 uM using KKRNRTLTK as substrate preincubated for 20 mins followed by [gamma-33P]-ATP addition and measured after 120 mins by radiometric Hot-SpotSM Kinase assay relative to control. The arrangement: scale not given: the % may be the effect or the level left.

Test [5] addresses Receptor tyrosine-protein kinase erbB-2 (Homo sapiens) (UniProt P04626). The experiment in a line: Inhibition of human ERBB2 assessed as enzyme activity at 1 uM using poly[Glu:Tyr] (4:1) as substrate preincubated for 20 mins followed by [gamma-33P]-ATP addition and measured after 120 mins by radiometric Hot-SpotSM Kinase assay relative to control. The arrangement: scale not given: the % may be the effect or the level left.

Test [6] concerns the target T1, Mitogen-activated protein kinase kinase kinase 3 (Homo sapiens) (UniProt Q99759).
T1 sequence (whole entry): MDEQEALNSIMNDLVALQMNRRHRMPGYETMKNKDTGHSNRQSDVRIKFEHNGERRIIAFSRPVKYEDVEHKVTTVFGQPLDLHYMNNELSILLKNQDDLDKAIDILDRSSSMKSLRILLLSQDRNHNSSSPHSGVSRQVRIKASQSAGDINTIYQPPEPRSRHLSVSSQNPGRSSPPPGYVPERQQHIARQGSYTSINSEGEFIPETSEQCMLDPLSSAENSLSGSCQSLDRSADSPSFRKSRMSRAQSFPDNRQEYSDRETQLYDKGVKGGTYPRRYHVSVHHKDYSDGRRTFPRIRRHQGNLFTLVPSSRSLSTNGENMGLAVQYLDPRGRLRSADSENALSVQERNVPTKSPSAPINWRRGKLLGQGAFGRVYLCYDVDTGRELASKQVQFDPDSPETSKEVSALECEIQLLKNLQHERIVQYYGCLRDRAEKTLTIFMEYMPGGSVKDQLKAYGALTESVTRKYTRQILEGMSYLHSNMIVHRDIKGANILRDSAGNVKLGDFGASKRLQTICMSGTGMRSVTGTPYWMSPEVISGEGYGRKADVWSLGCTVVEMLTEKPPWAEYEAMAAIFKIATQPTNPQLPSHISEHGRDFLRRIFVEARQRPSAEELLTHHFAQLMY
The experiment in a line: Inhibition of human MEKK3 assessed as enzyme activity at 1 uM using myelin basic protein as substrate preincubated for 20 mins followed by [gamma-33P]-ATP addition and measured after 120 mins by radiometric Hot-SpotSM Kinase assay relative to control. The arrangement: scale not given: the % may be the effect or the level left.

The target of test [7] is Serine/threonine-protein kinase tousled-like 2 (Homo sapiens) (UniProt Q86UE8). The experiment in a line: Inhibition of human TLK2 assessed as enzyme activity at 1 uM using casein as substrate preincubated for 20 mins followed by [gamma-33P]-ATP addition and measured after 120 mins by radiometric Hot-SpotSM Kinase assay relative to control. Set-up: scale not given: the % may be the effect or the level left.
Sequence of Serine/threonine-protein kinase tousled-like 2 (Homo sapiens) (Q86UE8 whole entry, looked up): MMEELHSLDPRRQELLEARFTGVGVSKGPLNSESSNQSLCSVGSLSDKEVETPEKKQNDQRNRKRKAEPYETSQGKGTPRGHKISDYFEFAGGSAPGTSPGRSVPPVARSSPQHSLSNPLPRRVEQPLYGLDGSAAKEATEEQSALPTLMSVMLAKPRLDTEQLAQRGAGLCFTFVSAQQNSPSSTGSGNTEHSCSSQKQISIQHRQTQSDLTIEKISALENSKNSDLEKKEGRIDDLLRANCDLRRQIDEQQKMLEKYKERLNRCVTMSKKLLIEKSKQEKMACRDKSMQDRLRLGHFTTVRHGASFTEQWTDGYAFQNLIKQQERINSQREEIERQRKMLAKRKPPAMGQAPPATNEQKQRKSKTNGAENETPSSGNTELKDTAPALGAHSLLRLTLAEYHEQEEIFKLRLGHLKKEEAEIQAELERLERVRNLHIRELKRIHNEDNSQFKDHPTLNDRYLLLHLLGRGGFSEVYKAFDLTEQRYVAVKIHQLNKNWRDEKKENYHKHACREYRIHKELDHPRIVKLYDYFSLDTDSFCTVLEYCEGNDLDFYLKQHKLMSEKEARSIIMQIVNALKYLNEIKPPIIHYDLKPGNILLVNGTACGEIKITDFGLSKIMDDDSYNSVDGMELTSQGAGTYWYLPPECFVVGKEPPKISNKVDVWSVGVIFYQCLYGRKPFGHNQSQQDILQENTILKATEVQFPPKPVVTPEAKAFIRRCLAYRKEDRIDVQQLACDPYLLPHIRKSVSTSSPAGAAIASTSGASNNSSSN

In test [8] the target is T2, mTORC1 (Homo sapiens) (UniProt P42345+Q8N122+Q9BVC4). Put plainly: Inhibition of mTORC1 in human SLL cells assessed as reduction in c-Myc expression at 5 uM measured after 24 hrs by Western blot analysis. The format is cell-based. For orientation: Immunoblotting shows a protein as a band on a membrane.
For another test, the system named is CLL cell. The experiment in a line: Induction of apoptosis in human CLL cells assessed as increase in cleaved-PARP expression at 5 uM measured after 24 hrs in presence of carfilzomib by Western blot analysis. The format is functional, cell-based.
Test [9] concerns the target T2, mTORC1 (Homo sapiens). The experiment in a line: Inhibition of mTORC1 in human CLL cells assessed as reduction in 4E-BP1 phosphorylation at 5 uM measured after 24 hrs by Western blot analysis. The following applies: CLL cell. The format is cell-based.
In test [10] the target is T2, mTORC1 (Homo sapiens). The experiment in a line: Inhibition of mTORC1 in human LY10 cells assessed as reduction in c-Myc expression at 3 uM measured after 24 hrs by Western blot analysis. The format is cell-based.
Test [11] has as its system LY7. The experiment in a line: Induction of apoptosis in human LY7 cells assessed as increase in cleaved-PARP expression at 3 uM measured after 24 hrs in presence of carfilzomib by Western blot analysis. Type of test: functional, cell-based.
For test [12], the target named is T2, mTORC1 (Homo sapiens). The experiment in a line: Inhibition of mTORC1 in human LY10 cells assessed as reduction in 4E-BP1 phosphorylation at 3 uM measured after 24 hrs by Western blot analysis. The format is cell-based.
For the next test, the system named is Z-138. Put plainly: Cytotoxicity against human Z138 cells assessed as reduction in cell viability measured after 48 hrs by cell titer-glo assay. The format is functional, cell-based.
For test [13], the target named is Myc proto-oncogene protein (Homo sapiens) (UniProt P01106). The experiment in a line: Inhibition of c-Myc in human LY7 cells assessed as reduction in eIF4B expression at 3 uM incubated for 24 hrs by Western blot analysis. Type of test: cell-based.
Sequence of Myc proto-oncogene protein (Homo sapiens) (P01106 whole entry): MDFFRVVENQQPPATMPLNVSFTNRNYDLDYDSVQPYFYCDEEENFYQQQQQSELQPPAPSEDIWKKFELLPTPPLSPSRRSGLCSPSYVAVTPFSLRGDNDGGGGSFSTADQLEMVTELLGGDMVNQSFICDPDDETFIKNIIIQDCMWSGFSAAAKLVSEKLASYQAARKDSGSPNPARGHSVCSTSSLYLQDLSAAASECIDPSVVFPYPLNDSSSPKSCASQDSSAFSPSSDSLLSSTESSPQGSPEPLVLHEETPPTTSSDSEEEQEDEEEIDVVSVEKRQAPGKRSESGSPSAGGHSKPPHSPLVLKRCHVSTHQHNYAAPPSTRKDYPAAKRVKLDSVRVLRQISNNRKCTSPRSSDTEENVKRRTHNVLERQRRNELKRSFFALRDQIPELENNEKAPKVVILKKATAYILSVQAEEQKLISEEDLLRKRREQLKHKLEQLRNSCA
The target is the same in test [14]. The experiment in a line: Inhibition of c-Myc in human LY10 cells assessed as reduction in eIF4B expression at 3 uM incubated for 24 hrs by Western blot analysis. The format is cell-based.
In test [15] the test system is LY7. The experiment in a line: Cytotoxicity against human LY7 cells assessed as reduction in cell viability measured after 24 hrs by cell titer-glo assay. The format is functional, cell-based.
Another test has as its system PF-382. Put plainly: Induction of apoptosis in human PF-382 cells assessed as increase in cleaved-PARP expression at 5 uM measured after 24 hrs in presence of carfilzomib by Western blot analysis. Type of test: functional, cell-based.
Test [16] deals with T2, mTORC1 (Homo sapiens). The experiment in a line: Inhibition of mTORC1 in human PF-382 cells assessed as reduction in 4E-BP1 phosphorylation at 5 uM measured after 24 hrs by Western blot analysis. Type of test: cell-based.
For test [17], the system named is OCI-Ly10. The experiment in a line: Cytotoxicity against human LY10 cells assessed as reduction in cell viability measured after 24 hrs by cell titer-glo assay. Type of test: functional, cell-based. (In general: Cellular ATP, detected with luciferase, serves as a proxy for viable cell number.)
Test [18] deals with T2, mTORC1 (Homo sapiens). Put plainly: Inhibition of mTORC1 in human LY10 cells assessed as reduction in c-Myc expression at 3 uM measured after 24 hrs in presence of carfilzomib by Western blot analysis. Type of test: cell-based.
In the next test the test system is H9. The experiment in a line: Cytotoxicity against human H9 cells assessed as reduction in cell viability measured after 48 hrs by cell titer-glo assay. The format is functional, cell-based.
A further test has as its system JeKo-1. Put plainly: Cytotoxicity against human JeKo-1 cells assessed as reduction in cell viability measured after 24 hrs by cell titer-glo assay. The format is functional, cell-based.
Test [19] concerns OCI-Ly10. The experiment in a line: Induction of apoptosis in human LY10 cells assessed as increase in caspase-3/7 activation at 1 to 3 uM measured after 24 hrs in presence of carfilzomib. The format is functional, cell-based. The note with it: dose 1-3 µM.
Test [20] concerns the target T2, mTORC1 (Homo sapiens). The experiment in a line: Inhibition of mTORC1 in human CLL cells assessed as reduction in c-Myc expression at 5 uM measured after 24 hrs by Western blot analysis. The format is cell-based. The note with it: CLL cell.

Activity calls are given as the source filed them. The rule behind the calls is not given here.

Sequence of Ribosomal protein S6 kinase beta-2 (Homo sapiens) (Q9UBS0 whole entry): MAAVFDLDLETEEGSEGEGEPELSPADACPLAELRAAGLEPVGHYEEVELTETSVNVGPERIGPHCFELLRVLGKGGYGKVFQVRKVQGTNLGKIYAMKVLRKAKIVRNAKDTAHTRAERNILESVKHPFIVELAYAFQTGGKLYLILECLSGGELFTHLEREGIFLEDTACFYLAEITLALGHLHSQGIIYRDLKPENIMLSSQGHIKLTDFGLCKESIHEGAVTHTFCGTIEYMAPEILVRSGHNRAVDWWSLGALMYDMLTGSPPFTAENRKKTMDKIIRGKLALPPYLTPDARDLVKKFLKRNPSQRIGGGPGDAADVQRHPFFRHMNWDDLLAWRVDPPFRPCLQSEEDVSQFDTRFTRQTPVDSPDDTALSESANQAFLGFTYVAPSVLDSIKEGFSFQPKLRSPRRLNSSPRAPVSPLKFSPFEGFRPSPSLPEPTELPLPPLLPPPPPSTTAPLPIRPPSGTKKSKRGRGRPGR

`C[C@H](Nc1ncnc2nc[nH]c12)c1cc2cccc(Cl)c2c(=O)n1-c1ccccc1`: the Activity in [1] stood at 92.6%; in test [2] it was 101%; in test [3], 97.5%; in [4], 96.8%; in test [5] it was 104%; in test [6], 91.8%. In test [7], the Activity was 97.3%.

`CC[C@H](Nc1ncnc2[nH]cnc12)c1nc2cccc(F)c2c(=O)n1-c1ccccc1`: the inhibition entry (at mTORC1 (Homo sapiens) [8]; on mTORC1 (Homo sapiens) [9]; at mTORC1 (Homo sapiens) [10]; at mTORC1 (Homo sapiens) [12]; in test [13]; in [14]) was “inactive” in each case. Besides, the inhibition entry at mTORC1 (Homo sapiens) [16] and on mTORC1 (Homo sapiens) [20] was “inactive” each time. Besides, the Activity was determined as 93.8% in test [1]; 97.8% in [2]; 99.3% in test [3]; 104% in test [4]; 109% in test [5]; 102% in test [6]. Also, in [7], the Activity was 94%. The result in the test with CLL cell, in the test with LY7 [11], in the test with Z-138, with LY7 [15], in the test on PF-382 and with OCI-Ly10 [17] was Active. Moreover, the outcome with H9, in the test on JeKo-1 and in the test with OCI-Ly10 [19] was Active. Further, at mTORC1 (Homo sapiens) [18], the inhibition entry was “Active”.

In the case of `CC(C)Oc1ccc(-c2nn([C@@H](C)c3oc4ccc(F)cc4c(=O)c3-c3cccc(F)c3)c3ncnc(N)c23)cc1F` [UMBRALISIB], the inhibition entry (at mTORC1 (Homo sapiens) [8]; at mTORC1 (Homo sapiens) [9]; at mTORC1 (Homo sapiens) [10]; on mTORC1 (Homo sapiens) [12]; in test [13]; in test [14]) was “inactive” throughout. Moreover, the inhibition entry on mTORC1 (Homo sapiens) [16] and on mTORC1 (Homo sapiens) [20] was “inactive” in each case. Further, the Activity in [1] amounted to 96.6%; in [2], 93.5%; in test [3], 98.8%; in test [4], 105%; in test [5] it was 117%; in test [6], 102%. Also, the Activity in [7] was found to be 96.3%. Besides, the result in the test on CLL cell, with LY7 [11], in the test on Z-138, in the test on LY7 [15], in the test with PF-382 and in the test with OCI-Ly10 [17] was Active. Moreover, the outcome with H9, with JeKo-1 and with OCI-Ly10 [19] was Active. Further, the inhibition entry on mTORC1 (Homo sapiens) [18] was “Active”.
